According to patent US20200017495A1, “NOVEL HETEROCYCLIC COMPOUNDS AND THEIR USE IN PREVENTING OR TREATING BACTERIAL INFECTIONS” (priority 2017, published 2020):

Test system: Klebsiella pneumoniae (KPN) isolates
Test: MIC of compounds alone and combined with antibacterials, broth microdilution (CLSI)
Assay type: cell-based
Summary of the method: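 Broth microdilution in cation-adjusted Mueller-Hinton broth, inoculum 5.10^5 CFU/mL, 16-20 h at 35° C in ambient air, on genotyped isolates. Compound MIC, alone or with an antibacterial, taken visually as lowest concentration preventing growth; antibacterial MIC determined at each compound concentration.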

## C=CC1=C(C(=O)O)N2C(=O)[C@@H](NC(=O)/C(=N\OCC(=O)O)c3csc(N)n3)[C@H]2SC1 [FIX, Cefixime]
Strain KPN UFR28, genotype TEM-1, SHV-1, CTX-M-15, OXA-1, OXA-232
  MIC: 256 µg/mL
Strain KPN UFR33, genotype TEM-2, SHV-12, CTX-M-15, OXA-1, OXA-10
  MIC: >128 µg/mL
Strain KPN UFR42, genotype SHV-2, CTX-M-15 OXA-1, OXA-181, NDM-1
  MIC: >128 µg/mL
Strain KPN UFR43, genotype SHV-11, CTX-M-15, CMY-2, OXA-1, NDM-1
  MIC: >128 µg/mL
Strain KPN UFR46, genotype TEM-1, SHV-12, CTX-M-15, OXA-9, VIM-1
  MIC: >128 µg/mL
Strain KPN UFR53, genotype TEM-1, IMP-1
  MIC: >128 µg/mL
Strain KPN UFR65, genotype TEM-1, SHV-11, KPC-2
  MIC: >128 µg/mL
Strain KPN UFR66, compound alone
  MIC: 512 µg/mL
Strain KPN UFR66, genotype TEM-1, SHV-11, CTX-M-15, KPC-2
  MIC: 512 µg/mL
Strain KPN UFR67, genotype TEM-1, SHV-11, KPC-3
  MIC: >128 µg/mL
Strain KPN UFR68, compound alone
  MIC: >128 µg/mL
Strain KPN UFR68, genotype TEM-1, SHV-11, CTX-M-15, KPC-3
  MIC: >128 µg/mL
Strain KPN UFR76, genotype TEM-155, SHV-11, ACT-1, OXA-2
  MIC: >128 µg/mL
Strain KPN UFR77, genotype CMY-2
  MIC: 128 µg/mL
Strain KPN UFR78, genotype TEM-1, SHV-1, CTX-M-15, CMY-2, OXA-1, OXA-48
  MIC: >128 µg/mL
Strain KPN UFR79, genotype DHA-1, OXA-1
  MIC: >128 µg/mL
Strain KPN UFR80, genotype SHV-11, DHA-1, OXA-1
  MIC: <=0.25 μg/mL
Strain KPN UFR81, genotype TEM-1, SHV-1, DHA-1, OXA-48
  MIC: >128 µg/mL
Strain KPN UFR162, genotype SHV-28, TEM-1, CTX-M-15, OXA-181, OXA-181, NDM-1, antibiotic alone
  MIC: >128 µg/mL
Strain KPN UFR162, with AF2 @ 8 μg/mL
  MIC ATB in combination: >128 µg/mL
Strain KPN UFR162, with AF3 @ 8 μg/mL
  MIC ATB in combination: <0.25 µg/mL
Strain KPN UFR162, with CLA @ 4 μg/mL
  MIC ATB in combination: >128 µg/mL
Strain KPN UFR163, genotype TEM-1, SHV-1, CTX-M-15, OXA-232, OXA-9, NDM-1, qnrB1, qepA, RmtB, antibiotic alone
  MIC: >128 µg/mL
Strain KPN UFR163, with AF2 @ 8 μg/mL
  MIC ATB in combination: >128 µg/mL
Strain KPN UFR163, with AF3 @ 8 μg/mL
  MIC ATB in combination: <0.25 µg/mL
Strain KPN UFR163, with CLA @ 4 μg/mL
  MIC ATB in combination: >128 µg/mL
Strain KPN UFR164, genotype SHV-11, CTX-M-15, OXA-1, OXA-181, NDM-1, antibiotic alone
  MIC: >128 µg/mL
Strain KPN UFR164, with AF2 @ 8 μg/mL
  MIC ATB in combination: >128 µg/mL
Strain KPN UFR164, with AF3 @ 8 μg/mL
  MIC ATB in combination: >128 µg/mL
Strain KPN UFR164, with CLA @ 4 μg/mL
  MIC ATB in combination: >128 µg/mL
Strain KPN UFR165, genotype TEM-1, SHV-11, CTX-M-15, OXA-1, OXA-181, NDM-1, antibiotic alone
  MIC: >128 µg/mL
Strain KPN UFR165, with AF2 @ 8 μg/mL
  MIC ATB in combination: 64 µg/mL
Strain KPN UFR165, with AF3 @ 8 μg/mL
  MIC ATB in combination: >128 µg/mL
Strain KPN UFR165, with CLA @ 4 μg/mL
  MIC ATB in combination: >128 µg/mL
Strain KPN UFR166, genotype TEM-1, TEM-1, CTX-M-15, OXA-181, OXA-9, NDM-1, antibiotic alone
  MIC: >128 µg/mL
Strain KPN UFR166, with AF2 @ 8 μg/mL
  MIC ATB in combination: >128 µg/mL
Strain KPN UFR166, with AF3 @ 8 μg/mL
  MIC ATB in combination: >128 µg/mL
Strain KPN UFR166, with CLA @ 4 μg/mL
  MIC ATB in combination: >128 µg/mL
Strain KPN UFR167, genotype TEM-1, SHV-12, CTX-M-15, OXA-9, NDM-1, antibiotic alone
  MIC: >128 µg/mL
Strain KPN UFR167, with AF2 @ 8 μg/mL
  MIC ATB in combination: >128 µg/mL
Strain KPN UFR167, with AF3 @ 8 μg/mL
  MIC ATB in combination: >128 µg/mL
Strain KPN UFR167, with CLA @ 4 μg/mL
  MIC ATB in combination: >128 µg/mL
Strain KPN UFR168, genotype SHV-2, CTX-M-15, OXA-1, OXA-181, NDM-1, ArmA, antibiotic alone
  MIC: >128 µg/mL
Strain KPN UFR168, with AF2 @ 8 μg/mL
  MIC ATB in combination: >128 µg/mL
Strain KPN UFR168, with AF3 @ 8 μg/mL
  MIC ATB in combination: >128 µg/mL
Strain KPN UFR168, with CLA @ 4 μg/mL
  MIC ATB in combination: >128 µg/mL
Strain KPN UFR169, genotype TEM-1, SHV-28, CTX-M-15, CMY-4, OXA-1, NDM-1, antibiotic alone
  MIC: >128 µg/mL
Strain KPN UFR169, with AF2 @ 8 μg/mL
  MIC ATB in combination: >128 µg/mL
Strain KPN UFR169, with AF3 @ 8 μg/mL
  MIC ATB in combination: >128 µg/mL
Strain KPN UFR169, with CLA @ 4 μg/mL
  MIC ATB in combination: >128 µg/mL
Strain KPN UFR170, genotype TEM-1, SHV-28, CTX-M-15, CMY-6, OXA-1, OXA-9, NDM-1, antibiotic alone
  MIC: >128 µg/mL
Strain KPN UFR170, with AF2 @ 8 μg/mL
  MIC ATB in combination: <0.25 µg/mL
Strain KPN UFR170, with AF3 @ 8 μg/mL
  MIC ATB in combination: >128 µg/mL
Strain KPN UFR170, with CLA @ 4 μg/mL
  MIC ATB in combination: >128 µg/mL
Strain KPN UFR171, genotype TEM-1, SHV-28, CTX-M-15, OXA-1, OXA-10, NDM-1, RmtA, antibiotic alone
  MIC: >128 µg/mL
Strain KPN UFR171, with AF2 @ 8 μg/mL
  MIC ATB in combination: <0.25 µg/mL
Strain KPN UFR171, with AF3 @ 8 μg/mL
  MIC ATB in combination: <0.25 µg/mL
Strain KPN UFR171, with CLA @ 4 μg/mL
  MIC ATB in combination: >128 µg/mL
Strain KPN UFR172, genotype SHV-38, CMY-16, OXA-10, NDM-1, antibiotic alone
  MIC: >128 µg/mL
Strain KPN UFR172, with AF2 @ 8 μg/mL
  MIC ATB in combination: <0.25 µg/mL
Strain KPN UFR172, with AF3 @ 8 μg/mL
  MIC ATB in combination: <0.25 µg/mL
Strain KPN UFR172, with CLA @ 4 μg/mL
  MIC ATB in combination: >128 µg/mL
